Measured values reported in US11285156B2, “Substituted piperazines as KRAS G12C inhibitors” (Amgen Inc., priority 2018, dated 2022).

Biological target: GDP-bound KRAS protein (aa 1-169), containing both G12C and C118A amino acid substitutions (Homo sapiens (Human), UniProt P01116, C118A/G12C)
Assay: Coupled nucleotide exchange assay (SOS-mediated nucleotide exchange, AlphaScreen)
Assay type: biochemical
Conditions: 5 min compound pre-incubation; for IC50: read-out: Coupled exchange IC50 (5 min; μM)
Protocol: Coupled Nucleotide Exchange Assay:
Following compound pre-incubation, purified SOS protein (aa 564-1049) and GTP (Roche 10106399001) were added to the assay wells and incubated for an additional 30 min (for 5 min compound pre-incubation) or 1 hour (for 2 hour compound pre-incubation). […] The assay plates were then read on a PerkinElmer EnVision Multilabel Reader, using AlphaScreen® technology, and data were analyzed using a 4-parameter logistic model to calculate IC50 values.

GDP-bound KRAS protein (aa 1-169), containing both G12C and C118A amino acid substitutions, sequence (P01116 other isoform, or with tags, fused parts or gaps G12C/C118A): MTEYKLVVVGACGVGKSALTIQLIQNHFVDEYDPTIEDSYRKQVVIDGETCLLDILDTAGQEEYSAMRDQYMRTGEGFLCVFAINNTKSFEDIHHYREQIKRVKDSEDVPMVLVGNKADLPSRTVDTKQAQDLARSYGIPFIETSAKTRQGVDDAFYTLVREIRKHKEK

Compound	IC50 [µM]	Coupled exchange IC50 (5 min; μM) [µM]
C=CC(=O)N1C[C@H](C)N(c2nc(=O)n(-c3c(C)ccnc3C(C)C)c3nc(-c4cc(O)cc5ccccc45)c(F)cc23)C[C@H]1C (atropisomer, axis not shown; (M)) [Example 132-2, (M)-4-[(2S,5R)-2,5-dimethyl-4-prop-2-enoyl-piperazin-1-yl]-6-fluoro-7-(3-hydroxy-1-naphthyl)-1-(2-isopropyl-4-methyl-3-pyridyl)pyrido[2,3-d]pyrimidin-2-one]	0.57	–
C=CC(=O)N1CCN(c2nc(=O)n(-c3c(C)ccnc3C(C)C)c3nc(Cl)c(Cl)cc23)CC1CC#N (atropisomer, axis not shown; (M)) [Example 144-2, (M)-2-[4-[6,7-Dichloro-1-(2-isopropyl-4-methyl-3-pyridyl)-2-oxo-pyrido[2,3-d]pyrimidin-4-yl]-1-prop-2-enoyl-piperazin-2-yl]acetonitrile]	24.9	–
C=CC(=O)N1CCN(c2nc(=O)n(-c3c(C)ccnc3C(C)C)c3nc(Cl)c(Cl)cc23)CC1CC#N (atropisomer, axis not shown; (M)) [Example 144-2-1, (M)-2-[4-[6,7-Dichloro-1-(2-isopropyl-4-methyl-3-pyridyl)-2-oxo-pyrido[2,3-d]pyrimidin-4-yl]-1-prop-2-enoyl-piperazin-2-yl]acetonitrile]	63.7	–
C=CC(=O)N1C[C@H](C)N(c2nc(=O)n(-c3c(C)ccnc3C(C)C)c3nc(C45CCCCC4C5)c(Cl)cc23)C[C@H]1C (atropisomer, axis not shown; (M)) [Example 207, (M)-6-Chloro-4-[(2S,5R)-2,5-dimethyl-4-prop-2-enoyl-piperazin-1-yl]-1-(2-isopropyl-4-methyl-3-pyridyl)-7-[norcaran-1-yl]pyrido[2,3-d]pyrimidin-2-one]	–	0.932
C=CC(=O)N1CCN(c2nc(=O)n(-c3c(C)ccnc3C(C)C)c3nc(-c4ccccc4F)c(Cl)cc23)[C@@H]2C[C@@H]21 (atropisomer, axis not shown; (M)) [Example 222-1, (M)-4-((1R,6S)-5-Acryloyl-2,5-diazabicyclo[4.1.0]heptan-2-yl)-6-chloro-7-(2-fluorophenyl)-1-(2-isopropyl-4-methylpyridin-3-yl)pyrido[2,3-d]pyrimidin-2(1H)-one]	0.95	–
C=CC(=O)N1C[C@H](C)N(c2nc(=O)n(-c3c(C)ccnc3C(C)C)c3nc(N4CCCCC4C)c(Cl)cc23)C[C@H]1C (mixture of isomers) [Example 69-12, (M)-6-Chloro-4-[(2S,5R)-2,5-dimethyl-4-prop-2-enoyl-piperazin-1-yl]-1-(2-isopropyl-4-methyl-3-pyridyl)-7-[(2SR)-2-methyl-1-piperidyl]pyrido[2,3-d]pyrimidin-2-one]	–	2.88
C=CC(=O)N1C[C@H](C)N(c2nc(=O)n(-c3c(CN4CCCC4)cccc3C(C)C)c3nc(-c4ccccc4F)c(Cl)cc23)C[C@H]1C (single isomer, unassigned) [Example 80-10-1]	2.04	–
C=CC(=O)N1C[C@H](C)N(c2nc(=O)n(-c3c(CN(C)C)cccc3C(C)C)c3nc(-c4ccccc4F)c(Cl)cc23)C[C@H]1C (single isomer, unassigned) [Example 80-14-1]	1.26	–
C=CC(=O)N1C[C@H](C)N(c2nc(=O)n(-c3c(CN(C)C)ccnc3C(C)C)c3nc(-c4ccccc4F)c(Cl)cc23)C[C@H]1C (single isomer, unassigned) [Example 80-16-2]	0.903	–
C=CC(=O)N1C[C@H](C)N(c2nc(=O)n(-c3c(CN(C)C)ncnc3C(C)C)c3nc(-c4ccccc4F)c(Cl)cc23)C[C@H]1C (single isomer, unassigned) [Example 80-18-1]	1.39	–
C=CC(=O)N1C[C@H](C)N(c2nc(=O)n(-c3c(C)cc(CN(C)C)cc3C(C)C)c3nc(-c4ccccc4F)c(F)cc23)C[C@H]1C (single isomer, unassigned) [Example 80-20-1]	13.9	–
C=CC(=O)N1C[C@H](C)N(c2nc(=O)n(-c3c(C)cc(CN(C)C)cc3C(C)C)c3nc(-c4c(O)cccc4F)c(F)cc23)C[C@H]1C (single isomer, unassigned) [Example 80-21-1]	0.949	–
C=CC(=O)N1C[C@H](C)N(c2nc(=O)n(-c3c(Cl)ncnc3C(C)C)c3nc(-c4ccccc4C)c(Cl)cc23)C[C@H]1C (single isomer, unassigned) [Example 102-6-2]	0.726	–
C=CC(=O)N1C[C@H](C)N(c2nc(=O)n(-c3c(C)cc(P(C)(C)=O)cc3C(C)C)c3nc(-c4ccccc4F)c(Cl)cc23)C[C@H]1C (single isomer, unassigned) [Example 102-7-2]	5.28	–
C=CC(=O)N1C[C@H](C)N(c2nc(=O)n(-c3c(N(C)C)ccnc3C(C)C)c3nc(-c4ccccc4C(C)C)c(Cl)cc23)C[C@H]1C (single isomer, unassigned) [Example 103-1-1]	1.26	–
C=CC(=O)N1C[C@H](C)N(c2nc(=O)n(-c3c(N(CC)CC)ccnc3C(C)C)c3nc(-c4ccccc4C(C)C)c(Cl)cc23)C[C@H]1C (single isomer, unassigned) [Example 103-6-1]	1.15	–
C=CC(=O)N1C[C@H](C)N(c2nc(=O)n(-c3c(N(C)C)ccnc3C(C)C)c3nc(-c4ccccc4C)c(Cl)cc23)C[C@H]1C (single isomer, unassigned) [Example 103-7-1]	0.653	–
C=CC(=O)N1C[C@H](C)N(c2nc(=O)n(-c3c(C)ccnc3C(C)C)c3nc(-c4ccccc4F)c(Cl)nc23)C[C@H]1C (single isomer, unassigned) [Example 106-6-1]	3.67	–

Compound	IC50 [µM]	Coupled exchange IC50 (5 min; μM) [µM]
C=CC(=O)N1C[C@H](C)N(c2nc(=O)n(-c3c(CC)ncnc3C(C)C)c3nc(-c4ccccc4C)c(Cl)cc23)C[C@H]1C (single isomer, unassigned) [Example 109-2-2]	0.226	–
C=CC(=O)N1C[C@H](C)N(c2nc(=O)n(-c3c(C)cc(CN(C)C)cc3C(C)C)c3nc(-c4ccccc4F)c(Cl)cc23)C[C@H]1C (single isomer, unassigned) [Example 121-4]	–	1.48
C=CC(=O)N1C[C@H](C)N(c2nc(=O)n(-c3c(N(C)C)ccnc3C(C)C)c3nc(-c4c(F)cccc4NC(=O)CC)c(Cl)cc23)C[C@H]1C (single isomer, unassigned) [Example 122-2-1]	17.3	–
C=CC(=O)N1C[C@H](C)N(c2nc(=O)n(-c3c(N(C)C)ccnc3C(C)C)c3nc(-c4c(F)cccc4NC(=O)C4CC4)c(Cl)cc23)C[C@H]1C (single isomer, unassigned) [Example 122-3-1]	6.82	–
C=CC(=O)N1[C@H](C)CN(c2nc(=O)n(-c3c(C)cc(N)nc3C(C)C)c3nc(-c4c(O)cccc4F)c(F)cc23)C[C@@H]1C (single isomer, unassigned) [Example 123-1]	1.25	–
C=CC(=O)N1[C@H](C)CN(c2nc(=O)n(-c3c(C)cc(N)nc3C(C)C)c3nc(-c4ccccc4F)c(F)cc23)C[C@@H]1C (single isomer, unassigned) [Example 123-3]	14	–
C=CC(=O)N1[C@H](C)CN(c2nc(=O)n(-c3c(C)cc(N)nc3C(C)C)c3nc(-c4ccccc4F)c(F)cc23)C[C@@H]1C (single isomer, unassigned) [Example 123-4]	1	–
C=CC(=O)N1CCN(c2nc(=O)n(-c3c(C)ccnc3C(C)C)c3nc(-c4c(O)cccc4F)c(F)cc23)C(C)C1C (single isomer, unassigned) [Example 124-14-1, 4-[cis-2,3-dimethyl-4-prop-2-enoyl-piperazin-1-yl]-6-fluoro-7-(2-fluoro-6-hydroxy-phenyl)-1-(2-isopropyl-4-methyl-3-pyridyl)pyrido[2,3-d]pyrimidin-2-one]	22.2	–
C=CC(=O)N1CCN(c2nc(=O)n(-c3c(C)ccnc3C(C)C)c3nc(-c4c(O)cccc4F)c(F)cc23)C(C)C1C (single isomer, unassigned) [Example 124-14-2, 4-[cis-2,3-dimethyl-4-prop-2-enoyl-piperazin-1-yl]-6-fluoro-7-(2-fluoro-6-hydroxy-phenyl)-1-(2-isopropyl-4-methyl-3-pyridyl)pyrido[2,3-d]pyrimidin-2-one]	59.5	–
C=CC(=O)N1CCN(c2nc(=O)n(-c3c(C)ccnc3C(C)C)c3nc(-c4c(O)cccc4F)c(F)cc23)C(C)C1C (single isomer, unassigned) [Example 124-16-1, 4-[trans-2,3-dimethyl-4-prop-2-enoyl-piperazin-1-yl]-6-fluoro-7-(2-fluoro-6-hydroxy-phenyl)-1-(2-isopropyl-4-methyl-3-pyridyl)pyrido[2,3-d]pyrimidin-2-one]	1.12	–
C=CC(=O)N1CCN(c2nc(=O)n(-c3c(C)ccnc3C(C)C)c3nc(-c4c(O)cccc4F)c(F)cc23)C(C)C1C (single isomer, unassigned) [Example 124-16-2, 4-[trans-2,3-dimethyl-4-prop-2-enoyl-piperazin-1-yl]-6-fluoro-7-(2-fluoro-6-hydroxy-phenyl)-1-(2-isopropyl-4-methyl-3-pyridyl)pyrido[2,3-d]pyrimidin-2-one]	7.37	–
C=CC(=O)N1C[C@H](C)N(c2nc(=O)n(-c3c(C(C)C)ccnc3C(C)C)c3nc(-c4ccccc4C)c(F)cc23)C[C@H]1C (single isomer, unassigned) [Example 125-5]	0.46	–
C=CC(=O)N1C[C@H](C)N(c2nc(=O)n3c4nc(c(Cl)cc24)-c2ccccc2C/C=C/Cc2cccc(C(C)C)c2-3)C[C@H]1C (single isomer, unassigned) [Example 146-1-1]	9.43	–
C=CC(=O)N1C[C@H](C)N(c2nc(=O)n3c4nc(c(Cl)cc24)-c2ccccc2C/C=C\Cc2cccc(C(C)C)c2-3)C[C@H]1C (single isomer, unassigned) [Example 146-1-2]	53.8	–
C=CC(=O)N1C[C@H](C)N(c2nc(=O)n3c4nc(c(Cl)cc24)-c2ccccc2C/C=C/Cc2ccccc2-3)C[C@H]1C (single isomer, unassigned) [Example 146-3-1]	204	–
C=CC(=O)N1C[C@H](C)N(c2nc(=O)n3c4nc(c(Cl)cc24)-c2ccccc2C/C=C\Cc2ccccc2-3)C[C@H]1C (single isomer, unassigned) [Example 146-3-3]	57.3	–
C=CC(=O)N1C[C@H](C)N(c2nc(=O)n(-c3c(C)cc(C4CC4)nc3C(C)C)c3nc(-c4ccccc4F)c(Cl)cc23)C[C@H]1C (single isomer, unassigned) [Example 164-1]	–	0.066
